Measured values from patent publication US10358416B2, “Substituted pyrrolidines as G-protein coupled receptor 43 agonists” (Ogeda SA, priority 2009, dated 2019).

Tested on: ob/ob mice
Test: Oral glucose tolerance test (OGTT) in ob/ob mice
Assay type: in vivo
Settings: bi-daily 50 mg/kg during 28 days, AUC from -15 to 120 min
Experimental: Ob/ob or obese mice are leptin-deficient mice that eat excessively and become profoundly obese, hyperinsulinemic and hyperglycemic. It is an animal model of type II diabetes. Such model can be used for oral glucose tolerance tests (OGTTs). A total of sixteen (16) male ob/ob mice (6 weeks of age) were obtained from Harlan. Upon arrival to the animal unit, mice were housed 4 per cage in rodent cages mounted with feeders containing regular chow. The mice were put in a 12/12h light-dark cycle (light from 0600-1800 h) with controlled temperature conditions (22-24° C.). Fed blood glucose and body-weight was measured on day −2 in the morning between 08:00 AM and 09:00 AM. Animals were randomized into 2 groups according to fed glucose levels (on day −2). […]
Day 1 is the first day of dosing. […] At −15 min, blood glucose was measured (using a glucose analyzer) and animals were dosed with compounds of the invention or vehicle. At time point 0, blood glucose was measured again and glucose was administered by oral gavage (1 g/kg glucose). The blood glucose was then measured at time points 15, 30, 45, 60 and 120 minutes. […] The percentages of AUC inhibition induced by compounds of the invention were calculated as follows: % of AUC inhibition: [1−(AUC compound/AUC vehicle)]*100.

COc1ccccc1-c1ccc(C(=O)N2[C@@H](c3ccccc3Cl)CC[C@H]2C(=O)O)cc1 [Compound 1, (2S,5R)-5-(2-chlorophenyl)-1-(2′-methoxy-[1,1′-biphenyl]-4-carbonyl)pyrrolidine-2-carboxylic acid]
% of AUC inhibition (blood glucose AUC, OGTT): 40%
